Measurements taken from PubChem BioAssay AID1963874 (Molecular Pharmacology Branch, DTP, NCI, 2024).

Test system: 253994-281-T-J1-PDC KRAS-mutant spheroids with HUVEC/MSC, viability
Assay: Anticancer human tumor 253994-281-T-J1-PDC patient-derived colorectal carcinoma cell line growth inhibition [KRAS2]
Conditions: for viability, T/C: stronger effect = lower value
Method in brief: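 KRAS-mutant tumor cells were grown as spheroids with HUVEC endothelial cells and human MSCs as stroma. Targeted agents were tested alone and with KRAS pathway inhibitors. Doses started at or near clinical Cmax, or 10 microM, descending half-log.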

[1] = curve of first compound, second compound 0.0316 µM
[2] = curve of first compound, second compound 0.1 µM
[3] = curve of first compound, second compound 0.316 µM
[4] = curve of first compound, second compound 1 µM
[5] = curve of first compound, second compound 3.16 µM
[6] = second compound 0.0316 µM, first compound 0.0316 µM
[7] = second compound 0.0316 µM, first compound 0.1 µM
[8] = second compound 0.0316 µM, first compound 0.316 µM
[9] = second compound 0.0316 µM, first compound 1 µM
[10] = second compound 0.0316 µM, first compound 3.16 µM
[11] = second compound 0.0316 µM, first compound 10 µM
[12] = second compound 0.1 µM, first compound 0.0316 µM
[13] = second compound 0.1 µM, first compound 0.1 µM
[14] = second compound 0.1 µM, first compound 0.316 µM
[15] = second compound 0.1 µM, first compound 1 µM
[16] = second compound 0.1 µM, first compound 3.16 µM
[17] = second compound 0.1 µM, first compound 10 µM
[18] = second compound 0.316 µM, first compound 0.0316 µM
[19] = second compound 0.316 µM, first compound 0.1 µM
[20] = second compound 0.316 µM, first compound 0.316 µM
[21] = second compound 0.316 µM, first compound 1 µM
[22] = second compound 0.316 µM, first compound 3.16 µM
[23] = second compound 0.316 µM, first compound 10 µM
[24] = second compound 1 µM, first compound 0.0316 µM
[25] = second compound 1 µM, first compound 0.1 µM
[26] = second compound 1 µM, first compound 0.316 µM
[27] = second compound 1 µM, first compound 1 µM
[28] = second compound 1 µM, first compound 3.16 µM
[29] = second compound 1 µM, first compound 10 µM
[30] = second compound 3.16 µM, first compound 0.0316 µM
[31] = second compound 3.16 µM, first compound 0.1 µM
[32] = second compound 3.16 µM, first compound 0.316 µM
[33] = second compound 3.16 µM, first compound 1 µM
[34] = second compound 3.16 µM, first compound 3.16 µM
[35] = second compound 3.16 µM, first compound 10 µM
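Also: spheroids exposed to agents for seven days before readout.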
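For viability, T/C in this document: percent of DMSO vehicle control viability.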

Q: What does the source list for `COC(=O)c1ccc2c(C(=Nc3ccc(N(C)C(=O)CN4CCN(C)CC4)cc3)c3ccccc3)c(O)[nH]c2c1` + C=CC(=O)N1CCN(c2nc(OCC3CCCN3C)nc3c2CCN(c2cccc4cccc(C)c24)C3)CC1CC#N?
A: IC50 [1]: 4.96 µM; IC50 [2]: 4.29 µM; IC50 [3]: 3.34 µM; IC50 [4]: 2.31 µM; IC50 [5]: < 0.0316 µM; viability, T/C [6]: 101%; viability, T/C [7]: 112%; viability, T/C [8]: 98.7%; viability, T/C [9]: 96.4%; viability, T/C [10]: 76.3%; viability, T/C [11]: 9.63%; viability, T/C [12]: 94.2%; viability, T/C [13]: 88.3%; viability, T/C [14]: 86.7%; viability, T/C [15]: 75.5%; viability, T/C [16]: 66.9%; viability, T/C [17]: 13.4%; viability, T/C [18]: 109%; viability, T/C [19]: 85.9%; viability, T/C [20]: 80.4%; viability, T/C [21]: 72.5%; viability, T/C [22]: 59.4%; viability, T/C [23]: 15.7%; viability, T/C [24]: 90.7%; viability, T/C [25]: 85.8%; viability, T/C [26]: 66.9%; viability, T/C [27]: 72.7%; viability, T/C [28]: 44%; viability, T/C [29]: 0.21%; viability, T/C [30]: 5.16%; viability, T/C [31]: 10.4%; viability, T/C [32]: 18.4%; viability, T/C [33]: 9.87%; viability, T/C [34]: 0.17%; viability, T/C [35]: 0.22%

Q: How did the viability, T/C (compound 10 µM) turn out when `CNCc1ccccc1-c1csc(C(C)Nc2nc(C)nc3cc(OC)c(OC)cc23)c1` (stereo not drawn) was run?
A: The viability, T/C was 0.18% [middle of 14 runs].

Q: And the IC50 (compound alone, run of 08/26/2021)?
A: Its IC50 is 2.36 µM [middle of 5 runs].

Q: What about the IC50 (compound alone, run of 09/02/2021) of the same compound?
A: Its IC50 is 2.83 µM [middle of 6 runs].

Q: With `CCNC(=O)CC1N=C(c2ccc(Cl)cc2)c2cc(OC)ccc2-n2c(C)nnc21` (stereo not drawn) + C=CC(=O)N1CCN(c2nc(OCC3CCCN3C)nc3c2CCN(c2cccc4cccc(C)c24)C3)CC1CC#N as the compound, how does the IC50 [1] read?
A: Its IC50 is > 10 µM.

Q: What about the IC50 [2] of the same compound?
A: The IC50 was > 10 µM.

Q: What about the IC50 [3] of the same compound?
A: The IC50 was > 10 µM.

Q: And the IC50 [4]?
A: The IC50 was > 10 µM.

Q: What about the IC50 [5] of the same compound?
A: The IC50 was 0.865 µM.

Q: And the viability, T/C [6]?
A: The viability, T/C was 101%.

Q: What about the viability, T/C [7] of the same compound?
A: The viability, T/C was 99.7%.

Q: What about the viability, T/C [8] of the same compound?
A: Its viability, T/C is 88.3%.

Q: And the viability, T/C [9]?
A: The viability, T/C was 97%.

Q: And the viability, T/C [10]?
A: Its viability, T/C is 107%.

Q: What about the viability, T/C [11] of the same compound?
A: The viability, T/C was 85.9%.

Q: What about the viability, T/C [12] of the same compound?
A: Its viability, T/C is 92.2%.

Q: And the viability, T/C [13]?
A: The viability, T/C was 110%.

Q: What about the viability, T/C [14] of the same compound?
A: Its viability, T/C is 96.9%.

Q: And the viability, T/C [15]?
A: The viability, T/C was 107%.

Q: And the viability, T/C [16]?
A: Its viability, T/C is 97.9%.

Q: What about the viability, T/C [17] of the same compound?
A: The viability, T/C was 86.5%.

Q: And the viability, T/C [18]?
A: The viability, T/C was 107%.

Q: What about the viability, T/C [19] of the same compound?
A: The viability, T/C was 104%.

Q: What about the viability, T/C [20] of the same compound?
A: The viability, T/C was 106%.

Q: What about the viability, T/C [21] of the same compound?
A: The viability, T/C was 91.4%.

Q: What about the viability, T/C [22] of the same compound?
A: Its viability, T/C is 92.8%.

Q: What about the viability, T/C [23] of the same compound?
A: Its viability, T/C is 90.7%.

Q: And the viability, T/C [24]?
A: The viability, T/C was 98.4%.

Q: What about the viability, T/C [25] of the same compound?
A: The viability, T/C was 108%.

Q: And the viability, T/C [26]?
A: The viability, T/C was 95.8%.

Q: What about the viability, T/C [27] of the same compound?
A: The viability, T/C was 91%.

Q: And the viability, T/C [28]?
A: The viability, T/C was 93%.

Q: And the viability, T/C [29]?
A: Its viability, T/C is 85%.

Q: What about the viability, T/C [30] of the same compound?
A: The viability, T/C was 84%.

Q: And the viability, T/C [31]?
A: Its viability, T/C is 96.2%.

Q: And the viability, T/C [32]?
A: The viability, T/C was 83.2%.

Q: What about the viability, T/C [33] of the same compound?
A: The viability, T/C was 25.9%.

Q: What about the viability, T/C [34] of the same compound?
A: The viability, T/C was 65.9%.

Q: And the viability, T/C [35]?
A: Its viability, T/C is 43.8%.
